From PubChem BioAssay (NCI)
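96-well plates; 48 h exposure; 5 concentrations. Endpoints by linear interpolation between flanking doses. Not reached: highest tested concentration assigned. TGI is the concentration that stops growth completely.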

These compounds were tested on M19-MEL melanoma (assay: NCI-60 cell line screen, 48 h).
In the case of `O=C1CCC(c2ccccc2)C(O)(C(=O)O)C1` (stereo not drawn), the TGI is reported as greater than 100 µM.
`CCCN(CCCCC(NC(C)=O)C(=O)NCc1ccccc1)C(=O)N(CCCl)N=O` (stereo not drawn) showed a TGI greater than 100 µM.
`COc1cc(C2c3cc4c(cc3[C@H](OCCN(C)C)[C@@H]3COC(=O)C23)OCO4)cc(OC)c1O` (stereo partly drawn) showed a TGI of 4.79 µM.
`N#CCCN(CCC#N)c1ccc(C(=O)NN)cc1` showed a TGI greater than 100 µM.
Work on `CC1=CC(=O)NP(=O)(Oc2ccc(C)cc2)N1` (stereo not drawn) yielded a TGI greater than 100 µM.
`CC(=O)OC1CC2OC(Cc3ccccc32)O1` (stereo not drawn) was tested, and the TGI was greater than 100 µM.

Each compound was assayed on LXFL 529 NSCLC (assay: NCI-60 cell line screen, 48 h).
With `O=C1c2ccccc2S[C@@H](O)[C@@H]2CCCN12` the TGI was greater than 100 µM.
`CN(C)/N=C(\CCN1CCCC1)CC(c1ccccc1)c1c(O)c2ccccc2oc1=O` (stereo not drawn) was tested, and the TGI was greater than 100 µM.
Work on `COc1cc2c(c(OC)c1OC)-c1ccc(SC)c(=O)cc1C(CC(=O)Oc1ccc([N+](=O)[O-])cc1)C2` (stereo not drawn) yielded a TGI greater than 34.6 µM.
For `CC(=O)NC(CCCN)C(=O)NCc1ccccc1` (stereo not drawn), the TGI was greater than 100 µM.
In the case of `O=C1CCC(c2ccccc2)C(O)(C(=O)O)C1` (stereo not drawn), the TGI is reported as greater than 100 µM.
`CCCN(CCCCC(NC(C)=O)C(=O)NCc1ccccc1)C(=O)N(CCCl)N=O` (stereo not drawn) gave a TGI greater than 100 µM.
`COc1cc(C2c3cc4c(cc3[C@H](OCCN(C)C)[C@@H]3COC(=O)C23)OCO4)cc(OC)c1O` (stereo partly drawn) gave a TGI of 28 µM.
`N#CCCN(CCC#N)c1ccc(C(=O)NN)cc1` was tested, and the TGI was greater than 100 µM.
`CC1=CC(=O)NP(=O)(Oc2ccc(C)cc2)N1` (stereo not drawn) was tested, and the TGI was greater than 100 µM.
`CC(=O)OC1CC2OC(Cc3ccccc32)O1` (stereo not drawn) gave a TGI greater than 100 µM.

The compounds below were run on DLD-1 colon (assay: NCI-60 cell line screen, 48 h).
For `O=C1c2ccccc2S[C@@H](O)[C@@H]2CCCN12`, the TGI was greater than 100 µM.
`CN(C)/N=C(\CCN1CCCC1)CC(c1ccccc1)c1c(O)c2ccccc2oc1=O` (stereo not drawn) was tested, and the TGI was greater than 100 µM.
`COc1cc2c(c(OC)c1OC)-c1ccc(SC)c(=O)cc1C(CC(=O)Oc1ccc([N+](=O)[O-])cc1)C2` (stereo not drawn) showed a TGI of 8.69 µM.
In the case of `CC(=O)NC(CCCN)C(=O)NCc1ccccc1` (stereo not drawn), the TGI is reported as greater than 100 µM.
In the case of `O=C1CCC(c2ccccc2)C(O)(C(=O)O)C1` (stereo not drawn), the TGI is reported as greater than 100 µM.
`CCCN(CCCCC(NC(C)=O)C(=O)NCc1ccccc1)C(=O)N(CCCl)N=O` (stereo not drawn) gave a TGI greater than 100 µM.
For `COc1cc(C2c3cc4c(cc3[C@H](OCCN(C)C)[C@@H]3COC(=O)C23)OCO4)cc(OC)c1O` (stereo partly drawn), the TGI was 3.96 µM.
In the case of `N#CCCN(CCC#N)c1ccc(C(=O)NN)cc1`, the TGI is reported as greater than 100 µM.
`CC1=CC(=O)NP(=O)(Oc2ccc(C)cc2)N1` (stereo not drawn) gave a TGI greater than 100 µM.
With `CC(=O)OC1CC2OC(Cc3ccccc32)O1` (stereo not drawn) the TGI was greater than 100 µM.

What follows are compounds tested on MOLT-4 leukemia (assay: NCI-60 cell line screen, 48 h).
`O=C1c2ccccc2S[C@@H](O)[C@@H]2CCCN12` showed a TGI greater than 100 µM.
Compound `COc1cc2c(c(OC)c1OC)-c1ccc(SC)c(=O)cc1C(CC(=O)Oc1ccc([N+](=O)[O-])cc1)C2` (stereo not drawn) has a TGI greater than 100 µM.
Work on `CC(=O)NC(CCCN)C(=O)NCc1ccccc1` (stereo not drawn) yielded a TGI greater than 100 µM.
Compound `O=C1CCC(c2ccccc2)C(O)(C(=O)O)C1` (stereo not drawn) has a TGI greater than 100 µM.
Work on `CCCN(CCCCC(NC(C)=O)C(=O)NCc1ccccc1)C(=O)N(CCCl)N=O` (stereo not drawn) yielded a TGI greater than 100 µM.
Work on `COc1cc(C2c3cc4c(cc3[C@H](OCCN(C)C)[C@@H]3COC(=O)C23)OCO4)cc(OC)c1O` (stereo partly drawn) yielded a TGI of 0.684 µM.
`N#CCCN(CCC#N)c1ccc(C(=O)NN)cc1` gave a TGI greater than 100 µM.
`CC1=CC(=O)NP(=O)(Oc2ccc(C)cc2)N1` (stereo not drawn) showed a TGI greater than 100 µM.
With `CC(=O)OC1CC2OC(Cc3ccccc32)O1` (stereo not drawn) the TGI was greater than 100 µM.

What follows are compounds tested on XF 498 CNS (assay: NCI-60 cell line screen, 48 h).
`O=C1c2ccccc2S[C@@H](O)[C@@H]2CCCN12` showed a TGI greater than 100 µM.
Compound `CN(C)/N=C(\CCN1CCCC1)CC(c1ccccc1)c1c(O)c2ccccc2oc1=O` (stereo not drawn) has a TGI greater than 100 µM.
In the case of `COc1cc2c(c(OC)c1OC)-c1ccc(SC)c(=O)cc1C(CC(=O)Oc1ccc([N+](=O)[O-])cc1)C2` (stereo not drawn), the TGI is reported as 4.73 µM.
Work on `CC(=O)NC(CCCN)C(=O)NCc1ccccc1` (stereo not drawn) yielded a TGI greater than 100 µM.
`CCCN(CCCCC(NC(C)=O)C(=O)NCc1ccccc1)C(=O)N(CCCl)N=O` (stereo not drawn) showed a TGI greater than 100 µM.
With `COc1cc(C2c3cc4c(cc3[C@H](OCCN(C)C)[C@@H]3COC(=O)C23)OCO4)cc(OC)c1O` (stereo partly drawn) the TGI was 1.88 µM.
`N#CCCN(CCC#N)c1ccc(C(=O)NN)cc1` showed a TGI greater than 100 µM.
Work on `CC1=CC(=O)NP(=O)(Oc2ccc(C)cc2)N1` (stereo not drawn) yielded a TGI greater than 100 µM.
With `CC(=O)OC1CC2OC(Cc3ccccc32)O1` (stereo not drawn) the TGI was greater than 100 µM.

The compounds below were run on NCI-H226 lung (assay: NCI-60 cell line screen, 48 h).
With `CN(C)/N=C(\CCN1CCCC1)CC(c1ccccc1)c1c(O)c2ccccc2oc1=O` (stereo not drawn) the TGI was greater than 100 µM.
Work on `COc1cc2c(c(OC)c1OC)-c1ccc(SC)c(=O)cc1C(CC(=O)Oc1ccc([N+](=O)[O-])cc1)C2` (stereo not drawn) yielded a TGI of 0.865 µM.
In the case of `CC(=O)NC(CCCN)C(=O)NCc1ccccc1` (stereo not drawn), the TGI is reported as greater than 100 µM.
In the case of `O=C1CCC(c2ccccc2)C(O)(C(=O)O)C1` (stereo not drawn), the TGI is reported as greater than 100 µM.
Work on `CCCN(CCCCC(NC(C)=O)C(=O)NCc1ccccc1)C(=O)N(CCCl)N=O` (stereo not drawn) yielded a TGI greater than 100 µM.
`COc1cc(C2c3cc4c(cc3[C@H](OCCN(C)C)[C@@H]3COC(=O)C23)OCO4)cc(OC)c1O` (stereo partly drawn) showed a TGI of 0.301 µM.
With `N#CCCN(CCC#N)c1ccc(C(=O)NN)cc1` the TGI was greater than 100 µM.
With `CC1=CC(=O)NP(=O)(Oc2ccc(C)cc2)N1` (stereo not drawn) the TGI was greater than 100 µM.
In the case of `CC(=O)OC1CC2OC(Cc3ccccc32)O1` (stereo not drawn), the TGI is reported as greater than 100 µM.

These compounds were tested on KM20L2 colon (assay: NCI-60 cell line screen, 48 h).
For `O=C1c2ccccc2S[C@@H](O)[C@@H]2CCCN12`, the TGI was greater than 100 µM.
Work on `CN(C)/N=C(\CCN1CCCC1)CC(c1ccccc1)c1c(O)c2ccccc2oc1=O` (stereo not drawn) yielded a TGI greater than 100 µM.
In the case of `COc1cc2c(c(OC)c1OC)-c1ccc(SC)c(=O)cc1C(CC(=O)Oc1ccc([N+](=O)[O-])cc1)C2` (stereo not drawn), the TGI is reported as 0.465 µM.
`CC(=O)NC(CCCN)C(=O)NCc1ccccc1` (stereo not drawn) showed a TGI greater than 100 µM.
In the case of `O=C1CCC(c2ccccc2)C(O)(C(=O)O)C1` (stereo not drawn), the TGI is reported as greater than 100 µM.
For `CCCN(CCCCC(NC(C)=O)C(=O)NCc1ccccc1)C(=O)N(CCCl)N=O` (stereo not drawn), the TGI was greater than 100 µM.
`COc1cc(C2c3cc4c(cc3[C@H](OCCN(C)C)[C@@H]3COC(=O)C23)OCO4)cc(OC)c1O` (stereo partly drawn) was tested, and the TGI was 2.98 µM.
In the case of `N#CCCN(CCC#N)c1ccc(C(=O)NN)cc1`, the TGI is reported as greater than 100 µM.
In the case of `CC1=CC(=O)NP(=O)(Oc2ccc(C)cc2)N1` (stereo not drawn), the TGI is reported as greater than 100 µM.
`CC(=O)OC1CC2OC(Cc3ccccc32)O1` (stereo not drawn) showed a TGI greater than 100 µM.
